Laboratory results as given in patent US20250255829A1, “Multifunctional Nanoparticles and Uses in Managing Cancer and Cardiovascular Diseases” (Emory University, priority 2022, published 2025).

Key:
atherosclerotic plaques = assay: Atherosclerotic plaque quantification from H&E stained aorta sections; assay type: in vivo, Apoe−/− mice; details: for volumes of atherosclerotic plaques: 5 mg/kg study
Method: Apoe−/−mice bearing dual diseases received the treatment. After surgical resection of the primary tumors, tumor recurrence and mouse survival were monitored. Mice with tumor recurrence and reached the endpoint were sacrificed. Aorta tissues of the mice were collected at the time point. Serial frozen tissue sections were cut throughout the tissue blocks and stained with H&E. Size of plaques in all arteries of each of the H&E stained tissue sections were measured and total size of the plaques from eight tissue sections of each mouse was compared with the mean of the total plaque area of the no treatment control (100%). For PD1Y-HANP/Ava group that sacrificed at 120 days, an additional no treatment group that was time equivalent was used as a control for the progression of atherosclerosis.
Apoe−/−mice bearing subcutaneous mouse colon tumors were treated with different reagents every 3-4 days for three treatments. Three days following the last treatment, all mice were sacrificed, and aorta arteries were collected. Plaque volumes were quantified from serial H&E tissue sections. During 12 days of treatment, PD1Y-HANP/Avasimibe treated mice had 56% reduction of the total plaque volume in the dual disease mouse model.
Following treatments and by the end of the survival study, the aorta tissues were collected.
In order to enhance the therapeutic effect a combination of PD-L1 targeted delivery of HANP/Avasimibe was tested with uPAR targeted delivery of SN38 (7-Ethyl-10-hydroxycamptothecin), which is an active metabolite of irinotecan that is commonly used for the treatment of colon cancer. […] The effect of ATFmmp14-HANP/SN38 alone or in combination with PD1Y-HANP/Avasimibe at 5 mg/kg of Avasimibe and PD1Y peptide dose/injection was examined in a dual mouse colon cancer and atherosclerosis model. […] Significant reductions of the volumes of atherosclerotic plaques in all treatment groups were detected.

[1] = test system: MC38 mouse colon cancer cells; assay: Cell proliferation assay; assay type: cell-based; details: MC-38, read-out: IC50, inhibition of tumor cell proliferation
Source text: Hydrophobic 5β-cholanic acid was conjugated to HA (HACA) to promote self-assembly and assist in loading of hydrophobic drug molecule avasimibe (Ava). HANP/Ava is produced by self-assembling of HACA and avasimibe using a high-pressure homogenizer. Amount of encapsulated avasimibe could reach to 20% (w/w) in HANP/Ava. PD1Y-HANP/Ava was produced by conjugating chemically synthesized PD1Y peptides, mediated by cysteine of PD1Y and maleimide of a short-PEG (12×) linker (FIG. 1B). A ratio of PD1Y to HANP at 17:1 was used. If a high concentration of PD1Y peptides will be needed for improvement of immune checkpoint inhibition, the amount of PD1Y peptides could be further increased up to 200 peptides per HANP.

[2] = Intratumoral delivery in colon PDX tumors; assay type: in vivo; details: colon PDX tumors in NSG mice
Source text: (§1) A uPAR targeted stroma-penetrating ligand (ATFmmp14) was developed containing the amino terminal fragment of uPA fused with the catalytic domain of MMP14. […] ATFmmp14 targets to tumor stromal fibroblasts and macrophages and MMP14 digests extracellular matrixes. […] Without PD1Y or ATFmmp14 conjugation, lower levels of HANP/Avasimibe were present in tumors and atherosclerotic plaques. Thus, uPAR targeted ATF or ATFmmp14 conjugated PD1Y-HANP/Avasimibe enhances delivery efficiency in both plaques and tumors in dual disease mouse model or PDX model.

[3] = Targeted delivery by NIR optical imaging and NIR fluorescence microscopy; assay type: in vivo, Apoe−/− mice; details: systemic (i.v.) delivery, 48 hrs
Method: Apoe^−/− (Apo E gene knock-out) mouse is a commonly used mouse model for atherosclerosis. […] Apoe^−/− mice developed s.c. tumors within 2-3 weeks and extensive atherosclerosis were found in the aortas, especially in the aorta arching. Targeted delivery of PD1Y-HANPs into tumors and atherosclerotic plaques is mediated by targeting PD-L1 (PD1Y) and CD44 (HANP) expressed in both tissues. To determine efficiency of targeted delivery, NIR 830 dye labeled-PD1Y-HANPs were injected i.v. into Apoe^−/− mice bearing mouse colon tumors. […] Histological analysis of H&E stained tissue sections using NIR fluorescence microscopy (Keyence) confirmed HANP signals in the plaques. PD1Y-HANPs were found as clusters in the stromal and tumor areas, with a higher level in necrotic tumor regions.
as §1

[4] = test system: s.c. mouse colon tumors (MC38); assay: Tumor growth in dual colon cancer and atherosclerosis mouse model; assay type: in vivo, Apoe−/− mice; details: dual disease model
Method: Apoe^−/− mice on a high fat diet carrying s.c. mouse colon tumors (a dual disease model) received five i.v. treatments, once every three days, of 10 mg/kg of avasimibe or equivalent PD1Y-HANP/avasimibe, 10 mg/kg of PD1Y peptide equivalent of PD1Y-HANP or PD1Y. Residual tumors were surgically resected 6 days by surgery after the last therapy. Tumors were weighted.
Apoe−/−mice bearing s.c. MC38 tumors received i.v. treatments of 5 mg/kg of Avasimibe, 5 mg/kg of PD1Y peptide, or […] of SN38 equivalent dose of free drugs or nanoparticle drugs.
MC38 tumor specific IgG antibodies were detected in the mouse serum following PD1Y-HANP/Avasimibe treatment. […]
Apoe^−/− (Apo E gene knock-out) mouse is a commonly used mouse model for atherosclerosis. […] Histological analysis of H&E stained tissue sections using NIR fluorescence microscopy (Keyence) confirmed HANP signals in the plaques. […]
In order to enhance the therapeutic effect a combination of PD-L1 targeted delivery of HANP/Avasimibe was tested with uPAR targeted delivery of SN38 (7-Ethyl-10-hydroxycamptothecin), which is an active metabolite of irinotecan that is commonly used for the treatment of colon cancer. […] Significant reductions of the volumes of atherosclerotic plaques in all treatment groups were detected.

Q: Which “volumes of atherosclerotic plaques” value (atherosclerotic plaques) does the source give for CCc1c2c(nc3ccc(O)cc13)-c1cc3c(c(=O)n1C2)COC(=O)[C@]3(O)CC [SN38, 7-Ethyl-10-hydroxycamptothecin] here?
A: The value was “decreased”.

Q: For CC(C)c1cc(C(C)C)c(CC(=O)NS(=O)(=O)Oc2c(C(C)C)cccc2C(C)C)c(C(C)C)c1 [avasimibe], which IC50 [1] is on record?
A: The IC50 was 28 µM.

Q: And the “volumes of atherosclerotic plaques” value (atherosclerotic plaques)?
A: The value was “decreased”.

Q: And the “amount of the plaques (in words)” value (atherosclerotic plaques; following treatments and by the end of the survival study)?
A: The value was “significantly decreased”.

Q: Which results are given for “ATFmmp14: amino terminal fragment of uPA fused with the catalytic domain of MMP14; uPAR targeted stroma-penetrating ligand”?
A: intratumoral delivery [2]: high level of intratumoral delivery; delivery into tumors and atherosclerotic plaques [3]: high delivery efficiency

Q: With “NWNRLSPSNQTEKQAAPHHHHCGAISLHPKAKIEE [Unconjugated PD1Y peptide]” as the molecule, how does the therapeutic efficacy [4] read?
A: Its therapeutic efficacy is “did not show therapeutic efficacy”.
